# Assays:
# soybean = assay: Test B pre/postemergence soybean; type: in vivo, Glycine max; conditions: for Soybean plant response rating: Postemergence; for Plant response rating, Soybean: Preemergence
# Summary of the method: (§1)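 Herbicidal effect was estimated by eye on a ten-point control scale after plants spent twelve to sixteen days in a greenhouse following soil or foliar treatment. Foliar sprays targeted plants at one to four leaves; all doses were formulated in a non-phytotoxic solvent with surfactant.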
# duck salad = assay: Test B flood test duck salad; type: in vivo, Heteranthera limosa
# Summary of the method: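 Plants were grown to the 2-leaf stage before treatment with test chemical, then held in a greenhouse for twelve to sixteen days. Injury was visually rated against untreated controls on a 0–10 scale, where 0 is no effect and 10 is complete control.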
# surinam grass = assay: Test B pre/postemergence surinam grass; type: in vivo, Brachiaria decumbens; conditions: for B. signalgrass plant response rating: Postemergence; for Plant response rating, B. signalgrass: Preemergence
# Summary of the method: as §1
# crabgrass = assay: Test B pre/postemergence crabgrass; type: in vivo, Digitaria sanguinalis; conditions: for Crabgrass plant response rating: Postemergence; for Plant response rating, Crabgrass: Preemergence
# Summary of the method: as §1
# cocklebur = assay: Test B pre/postemergence cocklebur; type: in vivo, Xanthium strumarium; conditions: for Cocklebur plant response rating: Postemergence; for Plant response rating, Cocklebur: Preemergence
# Summary of the method: as §1
# velvetleaf = assay: Test B pre/postemergence velvetleaf; type: in vivo, Abutilon theophrasti; conditions: for Velvetleaf plant response rating: Postemergence; for Plant response rating, Velvetleaf: Preemergence
# Summary of the method: as §1
# sugar beet = assay: Test B pre/postemergence sugar beet; type: in vivo, Beta vulgaris; conditions: for Sugarbeets plant response rating: Postemergence; for Plant response rating, Sugarbeets: Preemergence
# Summary of the method: as §1
# purple nutsedge = assay: Test B pre/postemergence purple nutsedge; type: in vivo, Cyperus rotundus; conditions: for Nutsedge plant response rating: Postemergence; for Plant response rating, Nutsedge: Preemergence
# Summary of the method: as §1
# corn = assay: Test B pre/postemergence corn; type: in vivo, Zea mays; conditions: for Corn plant response rating: Postemergence; for Plant response rating, Corn: Preemergence
# Summary of the method: as §1
# blackgrass = assay: Test B pre/postemergence blackgrass; type: in vivo, Alopecurus myosuroides; conditions: Postemergence
# Summary of the method: as §1
# [1] = Rate 125 g/ha, scale of 0 to 10 where 0 is no effect and 10 is complete control
# [2] = Rate 500 g/ha, scale of 0 to 10 where 0 is no effect and 10 is complete control
# [3] = Rate 250 g/ha, scale 0 to 10, 0 is no effect, 10 is complete control
# [4] = Rate 500 g/ha, scale 0 to 10, 0 is no effect, 10 is complete control
# [5] = Rate 1000 g/ha, scale 0 to 10 (0 no effect, 10 complete control)
# [6] = Rate 250 g/ha, scale 0 to 10 (0 no effect, 10 complete control)
smiles,measurement,setting,value
COC(=O)C(CCO)n1c(=O)on(C(=O)N(c2ccccc2)C(C)C)c1=O (stereo not shown) [Compound 678],Soybean plant response rating,soybean; [1],1
same,"Plant response rating, Soybean",soybean; [1],0
same,"Plant response rating, Soybean",soybean; [2],0
same,Soybean plant response rating,soybean; [3],2
same,Soybean plant response rating,soybean; [4],2
same,"Plant response rating, Soybean",soybean; [5],0
same,Ducksalad plant response rating,"duck salad; Pre-emergence, Rate 1000 g/ha, scale 0 to 10 (0 no effect, 10 complete control)",0
same,"Ducksalad plant response rating (0 to 10 scale, 0 is no effect, 10 is complete control)","duck salad; Rate 125 g/ha, under heading Pre-emergence, flood test species, visual evaluation after twelve to sixteen days",0
same,Ducksalad plant response rating,"duck salad; Rate 250 g/ha, Pre-emergence (flood test species), scale 0 to 10, 0 is no effect, 10 is complete control",0
same,Ducksalad plant response rating,"duck salad; Rate 500 g/ha, Pre-emergence section of Table B, 0 to 10 scale (0 no effect, 10 complete control)",0
same,B. signalgrass plant response rating,surinam grass; [1],0
same,B. signalgrass plant response rating,surinam grass; [5],4
same,"Plant response rating, B. signalgrass",surinam grass; [1],0
same,"Plant response rating, B. signalgrass",surinam grass; [6],0
same,"Plant response rating, B. signalgrass",surinam grass; [2],0
same,B. signalgrass plant response rating,surinam grass; [3],0
same,B. signalgrass plant response rating,surinam grass; [4],2
same,"Plant response rating, B. signalgrass",surinam grass; [5],0
same,Crabgrass plant response rating,crabgrass; [1],0
same,"Plant response rating, Crabgrass",crabgrass; [1],0
same,"Plant response rating, Crabgrass",crabgrass; [6],0
same,"Plant response rating, Crabgrass",crabgrass; [2],1
same,Crabgrass plant response rating,crabgrass; [3],0
same,Crabgrass plant response rating,crabgrass; [4],6
same,"Plant response rating, Crabgrass",crabgrass; [5],3
same,Cocklebur plant response rating,cocklebur; [1],0
same,Cocklebur plant response rating,cocklebur; [5],3
same,"Plant response rating, Cocklebur",cocklebur; [1],0
same,"Plant response rating, Cocklebur",cocklebur; [6],0
same,"Plant response rating, Cocklebur",cocklebur; [2],0
same,Cocklebur plant response rating,cocklebur; [3],0
same,Cocklebur plant response rating,cocklebur; [4],2
same,"Plant response rating, Cocklebur",cocklebur; [5],0
same,Velvetleaf plant response rating,velvetleaf; [1],0
same,"Plant response rating, Velvetleaf",velvetleaf; [1],0
same,"Plant response rating, Velvetleaf",velvetleaf; [2],2
same,Velvetleaf plant response rating,velvetleaf; [3],0
same,Velvetleaf plant response rating,velvetleaf; [4],3
same,"Plant response rating, Velvetleaf",velvetleaf; [5],5
same,Sugarbeets plant response rating,sugar beet; [1],0
same,"Plant response rating, Sugarbeets",sugar beet; [1],0
same,"Plant response rating, Sugarbeets",sugar beet; [2],0
same,Sugarbeets plant response rating,sugar beet; [3],0
same,Sugarbeets plant response rating,sugar beet; [4],0
same,"Plant response rating, Sugarbeets",sugar beet; [5],0
same,Nutsedge plant response rating,purple nutsedge; [1],0
same,"Plant response rating, Nutsedge",purple nutsedge; [1],0
same,"Plant response rating, Nutsedge",purple nutsedge; [2],0
same,Nutsedge plant response rating,purple nutsedge; [3],0
same,Nutsedge plant response rating,purple nutsedge; [4],0
same,"Plant response rating, Nutsedge",purple nutsedge; [5],0
same,Corn plant response rating,corn; [1],0
same,Corn plant response rating,corn; [5],0
same,"Plant response rating, Corn",corn; [1],0
same,"Plant response rating, Corn",corn; [6],0
same,"Plant response rating, Corn",corn; [2],0
same,Corn plant response rating,corn; [3],0
same,Corn plant response rating,corn; [4],0
same,"Plant response rating, Corn",corn; [5],0
same,Blackgrass plant response rating,blackgrass; [1],0
same,Blackgrass plant response rating,blackgrass; [5],6

# From patent US6737383B1, “Herbicidal oxadiazolidines” (priority 1999, dated 2004)
